The values below come from PubChem BioAssay (NCI).

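Protocol summary: plate cells (96-well), add compound at 5 concentrations, incubate 48 h, interpolate endpoints linearly. GI50: concentration for 50% inhibition of growth. TGI: total growth inhibition.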

Among the test systems are A498 renal; NCI-H460 lung; LOX IMVI melanoma; TK-10 renal; UACC-62 melanoma; 786-0 renal; SK-MEL-5 melanoma; K-562 leukemia; IGROV1 ovarian; HCC-2998 colon.
Common to all, as to assay: NCI-60 cell line screen, 48 h

As to `C[C@]12CCc3sc(Nc4ccc(OC(F)(F)F)cc4)nc3C1=CC[C@@H]1[C@@H]2CC[C@]2(C)C(=O)CC[C@@H]12`, the GI50 in the test on A498 renal is 2.09 µM; in the test with NCI-H460 lung, 3.25 µM; in the test on LOX IMVI melanoma, 1.74 µM; in the test with TK-10 renal, 4.82 µM; in the test on UACC-62 melanoma it was 3.03 µM; in the test with 786-0 renal it was 1.45 µM. Further, the GI50 in the test on SK-MEL-5 melanoma is 2.62 µM; in the test on K-562 leukemia it was 1.87 µM; with IGROV1 ovarian, 3.32 µM; in the test with HCC-2998 colon, 5.32 µM. In addition, the TGI in the test on A498 renal turned out to be 5.77 µM; in the test with NCI-H460 lung, 11.8 µM; in the test on LOX IMVI melanoma it was 3.18 µM; in the test with TK-10 renal it was 32 µM; with UACC-62 melanoma it was 10.3 µM; with 786-0 renal, 3.28 µM. The TGI in the test with SK-MEL-5 melanoma worked out at 7.41 µM; in the test with K-562 leukemia it was 6.64 µM; in the test on IGROV1 ovarian, 10.8 µM; in the test with HCC-2998 colon it was 18.6 µM.
Turning to `Nc1ncc(-c2cnn(C3CCNCC3)c2)cc1-c1nc2cc(Cl)ccc2o1`, the GI50 is 1.71 µM with A498 renal; 1.68 µM with NCI-H460 lung; 1.55 µM in the test on LOX IMVI melanoma; 1.94 µM with TK-10 renal; 1.96 µM with UACC-62 melanoma; 1.71 µM with 786-0 renal. Besides, the GI50 in the test with SK-MEL-5 melanoma is 1.66 µM; with K-562 leukemia, 0.218 µM; in the test with IGROV1 ovarian it was 1.04 µM; in the test with HCC-2998 colon, 1.47 µM. The TGI with A498 renal stood at 3.12 µM; in the test on NCI-H460 lung, 3.28 µM; in the test on LOX IMVI melanoma it was 3.07 µM; with TK-10 renal, 3.58 µM; in the test with UACC-62 melanoma it was 3.65 µM; in the test with 786-0 renal it was 3.16 µM. The TGI stood at 3.08 µM with SK-MEL-5 melanoma, 0.444 µM with K-562 leukemia, 2.43 µM in the test with IGROV1 ovarian and 2.82 µM in the test with HCC-2998 colon.
Consider `CC(=O)Oc1c(C)c(-c2ccccc2)c(C)c(-c2ccccc2)c1C(=S)c1ccccc1`, for which the TGI with A498 renal, in the test on NCI-H460 lung, in the test on LOX IMVI melanoma, with TK-10 renal, with UACC-62 melanoma and with 786-0 renal was over 100 µM in each case. Further, the TGI with SK-MEL-5 melanoma, in the test on K-562 leukemia, in the test on IGROV1 ovarian and in the test on HCC-2998 colon was over 100 µM each time.
As for `CN(c1ccc(NC(=O)Nc2c(Cl)cccc2Cl)cc1)c1ccnc(Nc2cccc(CS(C)(=O)=O)c2)n1`, the GI50 with A498 renal is 4.4 µM; with NCI-H460 lung, 0.505 µM; in the test on LOX IMVI melanoma, 2.37 µM; in the test with TK-10 renal, 3.98 µM; in the test on UACC-62 melanoma, 3.11 µM; in the test with 786-0 renal, 3.63 µM. The GI50 is 2.79 µM in the test with SK-MEL-5 melanoma, 1.54 µM in the test with K-562 leukemia, 4.57 µM with IGROV1 ovarian and 4.78 µM in the test with HCC-2998 colon. The TGI is over 20.3 µM in the test on A498 renal; 11.6 µM with NCI-H460 lung; over 14.7 µM in the test with LOX IMVI melanoma; 9.02 µM in the test on TK-10 renal; 8.36 µM in the test on UACC-62 melanoma; 10.6 µM in the test on 786-0 renal. The TGI in the test on SK-MEL-5 melanoma was 7.09 µM; in the test on K-562 leukemia, over 25 µM; in the test with IGROV1 ovarian, over 17 µM; in the test on HCC-2998 colon it was 16.8 µM.
Regarding `C#CC1(O)C(COP(=O)(O)OCC(COP(=O)(O)OCC2OC(n3cc(F)c(=O)[nH]c3=O)CC2O)OCCCCCCCCCCCCCCCCCC)OC(n2ccc(N)nc2=O)C1O` (configuration not stated), the GI50 with A498 renal is 0.421 µM; with NCI-H460 lung, under 0.01 µM; with LOX IMVI melanoma it was 0.0765 µM; with TK-10 renal, 0.241 µM; with UACC-62 melanoma, 0.196 µM; in the test with 786-0 renal it was 0.0379 µM. Besides, the GI50 in the test with SK-MEL-5 melanoma was 0.275 µM; with K-562 leukemia it was 0.338 µM; in the test on IGROV1 ovarian it was 0.236 µM; in the test with HCC-2998 colon it was 0.0752 µM. Also, the TGI in the test with A498 renal was 12.1 µM; with LOX IMVI melanoma, over 27.7 µM; in the test with TK-10 renal, over 29 µM; in the test with UACC-62 melanoma, 2.69 µM; in the test on 786-0 renal, 17 µM; in the test with SK-MEL-5 melanoma, 9.29 µM. Besides, the TGI in the test with K-562 leukemia was over 100 µM; in the test with HCC-2998 colon, 1.26 µM.
As for `CC1(C)N=C(N)N=C(N)N1c1ccc(CCC(=O)Nc2ccc(S(=O)(=O)F)cc2)c(Cl)c1`, the GI50 in the test with A498 renal is 61.9 µM; in the test on NCI-H460 lung it was 0.0716 µM; in the test on LOX IMVI melanoma, 0.402 µM; in the test on TK-10 renal, 0.604 µM; in the test with UACC-62 melanoma, 0.287 µM; in the test with 786-0 renal, 0.697 µM. Also, the GI50 in the test with SK-MEL-5 melanoma is 0.591 µM; in the test with K-562 leukemia, 0.342 µM; in the test with IGROV1 ovarian, 0.0551 µM; in the test on HCC-2998 colon, 0.997 µM. Further, the TGI with A498 renal, in the test with NCI-H460 lung, with LOX IMVI melanoma, in the test with TK-10 renal, with UACC-62 melanoma and in the test with 786-0 renal was over 100 µM each time. The TGI in the test on SK-MEL-5 melanoma was over 100 µM; in the test with K-562 leukemia it was over 100 µM; in the test on IGROV1 ovarian, over 86.5 µM; in the test on HCC-2998 colon, over 100 µM.
In the case of `O=C(/C=C/c1ccccc1)Nc1ncc(Cc2ccccc2Cl)s1`, the GI50 was 0.176 µM in the test with A498 renal; 0.333 µM in the test on NCI-H460 lung; 0.426 µM in the test on LOX IMVI melanoma; over 100 µM in the test with TK-10 renal; 0.326 µM in the test with UACC-62 melanoma; 0.774 µM with 786-0 renal. Further, the GI50 was 0.341 µM in the test on SK-MEL-5 melanoma, 0.223 µM in the test on K-562 leukemia, 0.477 µM with IGROV1 ovarian and 0.361 µM in the test on HCC-2998 colon. In addition, the TGI is 0.68 µM in the test with A498 renal; over 100 µM in the test on NCI-H460 lung; over 100 µM in the test with LOX IMVI melanoma; over 100 µM in the test on TK-10 renal; over 100 µM in the test on UACC-62 melanoma; over 100 µM in the test with 786-0 renal. Also, the TGI in the test with K-562 leukemia, with IGROV1 ovarian and with HCC-2998 colon was over 100 µM each time.
In the case of `O=C1NC(=S)S/C1=C/c1ccc2c(c1)OCO2`, the GI50 with A498 renal was 28.7 µM; in the test with NCI-H460 lung, over 100 µM; in the test on LOX IMVI melanoma, over 100 µM; in the test with TK-10 renal it was over 100 µM; in the test on UACC-62 melanoma, over 100 µM; in the test with 786-0 renal, over 100 µM. Moreover, the GI50 with SK-MEL-5 melanoma was over 100 µM; in the test on K-562 leukemia, over 100 µM; in the test on IGROV1 ovarian, 27.3 µM; with HCC-2998 colon, over 100 µM. Besides, the TGI in the test with A498 renal, in the test with NCI-H460 lung, in the test on LOX IMVI melanoma, in the test with TK-10 renal, with UACC-62 melanoma and with 786-0 renal was over 100 µM in each case. In addition, the TGI with SK-MEL-5 melanoma, in the test with K-562 leukemia, in the test with IGROV1 ovarian and with HCC-2998 colon was over 100 µM in each case.
